In one assay the test system is Fusar. In words: Tube Dilution Test in liquid media. It counts as cell-based. The source says:
(§1) The above mentioned greater activity against dermatophytes, yeasts and other fungi compared to "Bronopol" is illustrated in Table 1:
(§2) MIC (μg./ml.) in the Tube Dilution Test in liquid media

Another assay concerns Candid. alb. In words: Tube Dilution Test in liquid media. It is filed as cell-based.
From the text: as §1, §2

The test system of another assay is Asp. nig. In words: Tube Dilution Test in liquid media. It is filed as cell-based.
From the text: as §1, §2

The test system of another assay is Asp. fum. In words: Tube Dilution Test in liquid media. It counts as cell-based.
From the text: as §1, §2

For another assay, the system named is Mucor. pus. In words: Tube Dilution Test in liquid media. It counts as cell-based.
From the text: as §1, §2

Another assay concerns Pen. notat. In words: Tube Dilution Test in liquid media. It is filed as cell-based.
From the text: as §1, §2

In another assay the test system is Trichoph. ment. In words: Tube Dilution Test in liquid media. It counts as cell-based.
From the text: as §1, §2

Another assay concerns Trichoph. rubr. In words: Tube Dilution Test in liquid media. It is filed as cell-based.
From the text: as §1, §2

The next assay concerns Chaet. glob. In words: Tube Dilution Test in liquid media. It is filed as cell-based.
From the text: as §1, §2

In the next assay the test system is Paecilomyc. In words: Tube Dilution Test in liquid media. It is filed as cell-based.
From the text: as §1, §2

A further assay relates to Asp. flav. In words: Tube Dilution Test in liquid media. It is filed as cell-based.
From the text: as §1, §2

Another assay deals with Microsp. gypseum. In words: Tube Dilution Test in liquid media. It counts as cell-based.
From the text: as §1, §2

For the next assay, the system named is Sacch. cer. In words: Tube Dilution Test in liquid media. It is filed as cell-based.
From the text: as §1, §2

The test system of the next assay is bacteria. Conditions: known from U.S. Pat. No. 3,558,788; cited from earlier work.
[1] abbreviates: Sacch. cer., tube dilution test, liquid media, read-out: MIC.

≈ marks a conversion by molar mass, not a printed value. Like-named read-outs stand apart in the source and are kept apart here.

In the case of `CCCCC1([N+](=O)[O-])CN(C)CC2CCCCN2C1.Cl.Cl` (centres unmarked) [4-n-Butyl-2-methyl-4-nitroperhydropyrido[1,2-a] [1,4] diazepine dihydrochloride], the MIC in the assay with Fusar. was 16 µg/mL; in the assay with Candid. alb. it was 8 µg/mL; against Asp. nig., 31 µg/mL; in the assay with Asp. fum. it was 8 µg/mL; with Mucor. pus. it was 2 µg/mL; against Pen. notat., 8 µg/mL. Also, the MIC in the assay on Trichoph. ment. is 2 µg/mL; in the assay with Trichoph. rubr. it was 2 µg/mL; against Chaet. glob. it was 8 µg/mL; in the assay with Paecilomyc., 63 µg/mL; in the assay with Asp. flav. it was 4 µg/mL; against Microsp. gypseum, 8 µg/mL. Also, in the assay with Sacch. cer. (setting [1]), the MIC was 4 µg/mL.
For `O=[N+]([O-])C(Br)(CO)CO` [Bronopol, 2-bromo-2-nitropropane-1,3-diol, reference compound], the MIC against Candid. alb. is 63 µg/mL (≈ 315 µM); against Asp. nig., more than 1000 µg/mL; in the assay on Asp. fum. it was 63 µg/mL (≈ 315 µM); in the assay with Mucor. pus., 63 µg/mL (≈ 315 µM); against Pen. notat., more than 1000 µg/mL; with Trichoph. ment., 8 µg/mL (≈ 40 µM). Besides, the MIC against Trichoph. rubr. was 4 µg/mL (≈ 20 µM); in the assay on Chaet. glob., more than 1000 µg/mL; in the assay on Paecilomyc., 250 µg/mL (≈ 1250 µM); in the assay on Asp. flav., more than 1000 µg/mL; against Microsp. gypseum it was 16 µg/mL (≈ 80 µM); in the assay on Sacch. cer. it was 125 µg/mL (≈ 625 µM). Moreover, in the assay with bacteria, the antibacterial activity result is given as “has antibacterial activity”.
For `CN1CC2CCCCN2CC(Cc2ccccc2)([N+](=O)[O-])C1.Cl.Cl` (centres unmarked) [4-Benzyl-2-methyl-4-nitroperhydropyrido[1,2-a] [1,4]-diazepine dihydrochloride], the minimum inhibitory concentration (MIC) is 4 µg/mL against Candid. alb.; 125 µg/mL against Asp. nig.; 31 µg/mL against Asp. fum.; 8 µg/mL against Mucor. pus.; 125 µg/mL with Pen. notat.; 4 µg/mL against Trichoph. ment.. Also, the minimal inhibitory concentration (MIC) in the assay with Trichoph. rubr. stood at 2 µg/mL; against Chaet. glob., 63 µg/mL; in the assay on Paecilomyc., 16 µg/mL; against Asp. flav. it was 63 µg/mL; against Microsp. gypseum, 8 µg/mL; with Sacch. cer. (setting [1]), 4 µg/mL.

These data come from US3965103A, “4-Nitroperhydropyrido[1,2-a][1,4]diazepines” (Schering Aktiengesellschaft, priority 1973, dated 1976).
